Assay results as given in US20230021448A1, “COMPOUNDS AND COMPOSITIONS FOR TREATING CONDITIONS ASSOCIATED WITH STING ACTIVITY” (IFM Due, Inc., priority 2019, published 2023).

Target: T1, STING (Homo sapiens, UniProt Q86WV6, G230A/H232R/R293Q/R71H)
T1 construct: host or cells: THP1-Dual KO-IFNAR2 cells
Test: STING reporter assay: luciferase reporter activity in THP1-Dual KO-IFNAR2 cells stimulated with 2'3'cGAMP
Type: cell-based
Settings: 2′3′cGAMP 15 μM final, 24h, read-out: hSTING: EC50
How it was run: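 THP1-Dual KO-IFNAR2 cells (2×10E6 cells/mL) incubated with compounds at 0.0017-100 μM final plus Lipofectamine-transfected 2′3′cGAMP (15 μM final), 24 h at 37 °C, 5% CO2. Luciferase in supernatant read by QUANTI-Luc luminescence; EC50 derived.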

T1 sequence (Q86WV6 whole entry R71H/G230A/H232R/R293Q): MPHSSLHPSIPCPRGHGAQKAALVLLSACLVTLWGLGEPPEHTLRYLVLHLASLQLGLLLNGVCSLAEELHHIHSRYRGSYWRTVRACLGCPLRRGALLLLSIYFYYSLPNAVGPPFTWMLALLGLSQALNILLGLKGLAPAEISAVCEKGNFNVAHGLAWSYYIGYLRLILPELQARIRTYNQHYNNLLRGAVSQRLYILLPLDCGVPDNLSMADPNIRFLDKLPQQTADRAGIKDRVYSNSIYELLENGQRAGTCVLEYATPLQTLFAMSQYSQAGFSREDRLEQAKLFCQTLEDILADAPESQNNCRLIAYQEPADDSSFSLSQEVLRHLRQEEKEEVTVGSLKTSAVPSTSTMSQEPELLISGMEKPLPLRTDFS

Row | SMILES | EC50
1 | O=C(NCc1ccc(C(F)(F)F)c(Cl)c1)C(=O)Nc1c[nH]c2ccc(-c3cccc(CO)c3)cc12 [Compound 349, N-(3-chloro-4-(trifluoromethyl)benzyl)-N′-(5-(3-(hydroxymethyl)phenyl)-1H-indol-3-yl)oxalamide] | 1000 to 5000 nM
2 | O=C(NCc1ccc(C(F)(F)F)c(Cl)c1)C(=O)Nc1c[nH]c2ccc(-c3cnn(CC(F)(F)F)c3)cc12 [Compound 350] | 200 to 1000 nM
3 | O=C(NCCc1cccc(C(F)(F)F)c1)C(=O)Nc1c[nH]c2cc(F)c(F)cc12 [Compound 351] | 200 to 1000 nM
